Patent EP0103381B1, “Substituted anthra(1,9-cd)pyrazol-6(2H)-ones” (WARNER-LAMBERT COMPANY, priority 1982, dated 1984)
Like-named read-outs stand apart in the source and are kept apart here.

Key:
Escherichia coli = assay: agar plate paper-disc inhibition zone screening; type: cell-based; settings: read-out: Inhibition Zone Diameter mm (Dose mg/ml) E. Coli; for zone of inhibition at 3000 µg/mL: Dose 3.0 mg/ml; for zone of inhibition at 500 µg/mL: Dose 0.5 mg/ml
Procedure, shortened: (§1)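 Read-out: diameter (mm) of the inhibition zone around 12.7 mm paper discs after overnight (18-20 h) incubation at 37°C. Discs carried compound at 3,000-10 mcg/ml in alcohol, DMSO or DMF, final solvent <10%. Seeded agar trays used saline-suspended cells adjusted to 20-35% transmittancy.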

Aerobacter aerogenes = assay: agar plate paper-disc inhibition zone screening; type: cell-based; settings: Klebsiella aerogenes, read-out: Inhibition Zone Diameter mm (Dose mg/ml) A. Aerogenes; for zone of inhibition at 1000 µg/mL: Dose 1.0 mg/ml; for zone of inhibition at 3000 µg/mL: Dose 3.0 mg/ml; for zone of inhibition at 500 µg/mL: Dose 0.5 mg/ml
Procedure, shortened: as §1

Bacillus subtilis = assay: agar plate paper-disc inhibition zone screening; type: cell-based; settings: read-out: Inhibition Zone Diameter mm (Dose mg/ml) B. Subtilis; for zone of inhibition at 3000 µg/mL: Dose 3.0 mg/ml
Procedure, shortened: as §1

Streptococcus faecalis = assay: agar plate paper-disc inhibition zone screening; type: cell-based; settings: Enterococcus faecalis, read-out: Inhibition Zone Diameter mm (Dose mg/ml) S. Faecalis; for zone of inhibition at 3000 µg/mL: Dose 3.0 mg/ml
Procedure, shortened: as §1

Penicillium avellaneum = assay: agar plate paper-disc inhibition zone screening; type: cell-based; settings: Hamigera avellanea; Dose 3.0 mg/ml; read-out: Inhibition Zone Diameter mm (Dose mg/ml) P. Avellaneum
Procedure, shortened: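 Mycelia and spores from a six-day 28°C agar culture, suspended in saline with 0.05% Tween 80 at 20% transmittancy, were seeded into molten agar trays. Compounds at 3,000, 1,000, 500, 100 and 10 mcg/ml (solvent <10%) were applied on 12.7 mm paper discs. After at least 20-24 h incubation, inhibition zone diameter was measured in mm.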

[1] = test system: lymphocytic leukemia P388; assay: in vivo lymphocytic leukemia P388 test; design: species or system mice; settings: Mus musculus, P388, ip, 720 h, two single doses four days apart, read-out: T/C × 100 (Percent); for response vs control in vivo at 50 mg/kg: P388, Dose 50 mg/kg intraperitoneally; for response vs control in vivo at 6.25 mg/kg: P388, Dose 6.25 mg/kg intraperitoneally; for response vs control in vivo at 12.5 mg/kg: P388, Dose 12.5 mg/kg intraperitoneally; for response vs control in vivo at 25 mg/kg: P388, Dose 25 mg/kg intraperitoneally; for response vs control in vivo at 100 mg/kg: P388, Dose 100 mg/kg intraperitoneally
Procedure, shortened: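 Efficacy was judged from the treated/control survival-time ratio over 30 days (T/C×100 >125% as criterion). Mice (CD2F, 6–7/group) received i.p. P388 ascites cells, then compound i.p. at varied doses twice, four days apart.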

L1210 Leukemia = assay: L1210 leukemia in vitro; type: cell-based; settings: Mus musculus, procedure of Europ. J. Cancer 17, 671 (1981), read-out: L1210 Leukemia In Vitro ID50 Molar
[2] = test system: HCT-8 (human colon adenocarcinoma) cells; assay: in vitro activity against human colon adenocarcinoma (HCT-8), cell count; type: cell-based
Procedure, shortened: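 HCT-8 cells seeded at ~30,000 cells/ml in RPMI 1640 + 10% FCS, grown 48 hrs at 37°C, then exposed to compound 60-65 hrs. Lysed cells counted by Coulter counter; activity as percent of controls, reported as ID50 (molar quantity killing 50% of cells).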

[3] = Homo sapiens, HCT-8 cells, 60-65 hrs with compound, molar quantity of drug required to kill 50% of the tumor cells, read-out: ID50 Molar

Row | Structure (SMILES) | zone of inhibition at 3000 µg/mL (Escherichia coli) | zone of inhibition at 1000 µg/mL (Aerobacter aerogenes) | zone of inhibition at 3000 µg/mL (Bacillus subtilis) | zone of inhibition at 3000 µg/mL (Streptococcus faecalis) | zone of inhibition at 3000 µg/mL (Penicillium avellaneum) | response vs control in vivo at 50 mg/kg [1] | IC50 (L1210 Leukemia) | zone of inhibition at 500 µg/mL (Escherichia coli) | response vs control in vivo at 6.25 mg/kg [1] | response vs control in vivo at 12.5 mg/kg [1] | response vs control in vivo at 25 mg/kg [1] | IC50 [2, 3] | zone of inhibition at 3000 µg/mL (Aerobacter aerogenes) | response vs control in vivo at 100 mg/kg [1] | zone of inhibition at 500 µg/mL (Aerobacter aerogenes) | other results
1 | NCCn1nc2c3c(c(Cl)ccc31)C(=O)c1c(O)ccc(O)c1-2 [7,10-(OH)2; Cl*; (CH2)2NH2, 2-(2-Aminoethyl)-5-chloro-7,10-dihydroxyanthra[1,9-cd]pyrazol-6(2H)-one] | 15 mm | 14 mm | 0 mm | 0 mm | 0 mm | 125% | 630 nM | – | – | – | – | – | – | – | – | –
2 | O=C1c2c(O)ccc(O)c2-c2nn(CCNCCO)c3ccc(Cl)c1c23 [7,10-(OH)2; Cl*; (CH2)2NH(CH2)2OH, 5-Chloro-7,10-dihydroxy-2-[2-[(2-hydroxyethyl)amino]ethyl]anthra[1,9-cd]pyrazol-6(2H)-one] | – | 14 mm | 0 mm | 0 mm | 0 mm | 161% | 660 nM | 14 mm | 131% | 138% | 143% | – | – | – | – | –
3 | CCN(CC)CCNc1ccc2c3c(nn2CCN(CC)CC)-c2c(O)ccc(O)c2C(=O)c13 [Example 29, 2-[2-(Diethylamino)ethyl]-5-[[2-(diethylamino)ethyl]amino]-7,10-dihydroxyanthra[1,9-cd]pyrazol-6(2H)-one] | – | – | – | – | 16 mm | – | – | 14 mm | – | – | 140% | 640 nM | 0 mm | 180% | – | zone of inhibition at 500 µg/mL (Bacillus subtilis; Dose 0.5 mg/ml): 14 mm; zone of inhibition at 500 µg/mL (Streptococcus faecalis; Dose 0.5 mg/ml): 14 mm
4 | CCN(CC)CCn1nc2c3c(c(NCCN)ccc31)C(=O)c1c(O)ccc(O)c1-2 [Example 30, 5-[(2-Aminoethyl)amino]-2-(2-(diethylamino)ethyl]-7,10-dihydroxyanthra[1,9-cd]pyrazol-6(2H)-one] | – | – | – | 0 mm | 14 mm | – | – | – | 189% | – | 179% | 380 nM | – | – | 16 mm | zone of inhibition at 1000 µg/mL (Escherichia coli; Dose 1.0 mg/ml): 15 mm; zone of inhibition at 1000 µg/mL (Bacillus subtilis; Dose 1.0 mg/ml): 16 mm; response vs control in vivo at 1.56 mg/kg ([1]; P388, Dose 1.56 mg/kg intraperitoneally): 172%; response vs control in vivo at 3.12 mg/kg ([1]; P388, Dose 3.12 mg/kg intraperitoneally): 154%
5 | CN(C)CCCn1nc2c3c(c(NCCNCCO)ccc31)C(=O)c1c(O)ccc(O)c1-2 [Example 46, 2-[3-(Dimethylamino)propyl]-7,10-dihydroxy-5-[[2-[(2-hydroxyethyl)amino]ethyl]amino]anthra[1,9-cd]pyrazol-6(2H)-one] | 0 mm | – | 0 mm | 0 mm | 0 mm | – | – | – | 185% | 218% | – | – | 16 mm | – | – | IC50 ([2]; HCT-8 human colon adenocarcinoma cells, 60-65 hrs incubation with compound, Coulter counter cell count as percentage of controls, read-out: ID50 (the source's name)): 92 nM
6 | O=C1c2ccccc2-c2nn(CCNCCO)c3ccc(Cl)c1c23 [H; Cl*; (CH2)2NH(CH2)2OH, 5-chloro-2-[2-[(2-hydroxyethyl)amino]ethyl]anthra[1,9-cd]pyrazol-6(2H)-one] | – | – | – | 15 mm | 0 mm | – | 390 nM | – | – | – | – | – | – | 124% | 18 mm | zone of inhibition at 100 µg/mL (Escherichia coli; Dose 0.1 mg/ml): 16 mm; zone of inhibition at 100 µg/mL (Bacillus subtilis; Dose 0.1 mg/ml): 16 mm
